Experimental data reported in patent US20120178147A1, “MICROBIAL CULTURES AND METHODS FOR ANAEROBIC BIOREMEDIATION” (priority 2009, published 2012).

Columns and labels:
sediment microcosms = experiment: Effect of TCC, TCS and BES on TCE dechlorination in sediment microcosms and cultures derived from them; format: cell-based; settings: for effect on TCE reductive dechlorination in microcosms: addition of 20 μg/L TCC and TCS; for effect on TCE dechlorination rates in sediment-free cultures: cultures from microcosms amended with TCC, TCS, BES
Description: In this study, microcosm is defined as: anaerobic airtight serum bottles with sediment samples, anaerobic medium, electron donor, and a chlorinated compound used as an electron acceptor. Four microcosms were set up in the anaerobic glove chamber with H2 concentration of 3% (Coy laboratory products Inc. Grass Lake, Mich.). Ten gram of homogeneously mixed sediment from either core A or core D were transferred independently into a 160 ml sterile serum bottle, and 90 ml anaerobic media with vitamin solution and 2 mM lactate were added. One hundred μL of 20 mg/L TCC stock solution in methanol and 100 μL of 20 mg/L TCS stock solution were added by pipette (Eppendorf, Calif.) to two of the four microcosms. Microcosms were capped with thick black butyl rubber stoppers and aluminum crimps. 4.5 μL pure TCE was injected with airtight syringe (Hamilton Company, Reno, Nev.) into each serum bottle. On day 130, in order to inhibit methane production in the sediment microcosms, 25 mM BES was added in to sediment-A microcosm and sediment-D microcosm with TCC and TCS with airtight syringe (Hamilton Company, Reno, Nev.). Microcosms were stored in the dark and incubated at 30° C.
Production of Sediment-Free Cultures. To establish sediment-free cultures from core A and core D sediment microcosms, the microcosms were shaken vigorously, and the solids were allowed to settle down. Then, using 1-inch, 21-gauge sterile needles, […] liquid (10 ml) were transferred into 89 ml sterile medium with the following contents: anaerobic medium, ATCC vitamin mix, and vitamin B12, in 160-ml serum bottles. Then, 1 ml each of 500-mM lactate stock solution and 35-μL TCE stock solution (1 mol/L in methanol) were added to form a 100 ml culture in 160-ml serum bottle. Three sediment cultures were derived from each sediment microcosm, and 12 sediment-free cultures were produced (FIG. 1). For organizational purposes, we refer to the sediment-free cultures generated from sediment-A microcosms as SCA and the sediment free cultures generated from sediment-D microcosms as DehaloR̂2, in the figures herein, the DehaloR̂2 are referred to as “SCD”. Thus, the term “SCD” and DehaloR̂2 are used interchangeably herein as the composition “SCD” was renamed “DehaloR̂2” during the course of investigation. The sediment-free cultures were kept in the dark and incubated at 30° C. After all the chlorinated electron acceptors were consumed, the cultures were re-spiked with TCE and electron donors.
BES (2-bromoethanesulfonate) is an efficient inhibitor for the metabolism of methanogens in methanogenetic cultures because it is a structural analog and competitive inhibitor of coenzyme M, which is only found in methanogens (Dimarco et al., 1990; Sparling and Daniels, 1987). Different concentrations of BES have been used by researchers. […] In this study, in order to determine if the cause for incomplete reductive dechlorination was competition for electron donor between methanogens and TCE dechlorinating microorganisms in the microcosms, I added 25 mM BES, 70 μmol of TCE, and 5 mM lactate into two sediment microcosms, sediment-A and sediment-D with TCC and TCS. In two other sediment microcosms, I added 70 μmol of TCE and 5 mM lactate without BES.

[1] = at 25° C.; cited from earlier work

SMILES | effect on TCE reductive dechlorination in microcosms (sediment microcosms) | effect on TCE dechlorination rates in sediment-free cultures (sediment microcosms) | Vapor pressure [1]
O=C(Nc1ccc(Cl)cc1)Nc1ccc(Cl)c(Cl)c1 [TCC, 3-(4-chlorophenyl)-1-(3,4-dichlorphenyl) urea] | can be neglected | slow down TCE dechlorination rates | 3.61 × 10^−9 mm Hg
Oc1cc(Cl)ccc1Oc1ccc(Cl)cc1Cl [TCS, 5-chloro-2-[2,4-dichloro-phenoxy]-phenol] | can be neglected | slow down TCE dechlorination rates | 4.65 × 10^−6 mm Hg
